Our source for the zone of inhibition and inhibition zone values is EP3117830A1, “ANTIBACTERIAL PEPTIDES, AND USES THEREOF” (Nuritas Limited, priority 2015, dated 2017).

The test system of one assay is A. baumannii ATCC 19606. The assay can be described thus: microbe, parasite or virus in culture. As to conditions: Acinetobacter baumannii.
In assay [1] the test system is E. coli ATCC 25922. Briefly: microbe, parasite or virus in culture. The following applies: Escherichia coli.
The subject of a further assay is MRSA ATCC 43300. The assay can be described thus: microbe, parasite or virus in culture. As to conditions: Staphylococcus aureus, ATCC43300|MRSA.
For assay [2], the system named is E. coli ATCC 25922. It counts as cell-based. The source says: Antibacterial activity testing (in solid media).

Where two headings read alike, the source gives them in different places. No end group written: not given here.

As for `O=C(O)c1cn(C2CC2)c2cc(N3CCNCC3)c(F)cc2c1=O` [CIP, Ciprofloxacin], the zone of inhibition at 64 µg/mL in the assay with A. baumannii ATCC 19606 (ATCC19606, read-out: Inhibition zone diameter (mm) A. baumannii ATCC 19606 Rep 1) is 27 mm; with A. baumannii ATCC 19606 (ATCC19606, read-out: Inhibition zone diameter (mm) A. baumannii ATCC 19606 Rep 2) it was 28 mm; with A. baumannii ATCC 19606 (ATCC19606, read-out: Inhibition zone diameter (mm) A. baumannii ATCC 19606 Rep 3), 27 mm; with E. coli ATCC 25922 [1] (ATCC25922, read-out: Inhibition zone diameter (mm) E. coli ATCC 25922 Rep 1) it was 42 mm; in the assay on E. coli ATCC 25922 [1] (ATCC25922, read-out: Inhibition zone diameter (mm) E. coli ATCC 25922 Rep 2) it was 40 mm; in the assay on E. coli ATCC 25922 [1] (ATCC25922, read-out: Inhibition zone diameter (mm) E. coli ATCC 25922 Rep 3), 42 mm. The zone of inhibition at 64 µg/mL in the assay on MRSA ATCC 43300 (read-out: Inhibition zone diameter (mm) MRSA ATCC 43300 Rep 1) turned out to be 27 mm; with MRSA ATCC 43300 (read-out: Inhibition zone diameter (mm) MRSA ATCC 43300 Rep 2), 28 mm; in the assay with MRSA ATCC 43300 (read-out: Inhibition zone diameter (mm) MRSA ATCC 43300 Rep 3), 29 mm.
Turning to LNSQKFPILNLVQLSATR [I_87_SF], in the assay with E. coli ATCC 25922 [2], the inhibition zone was 9-10 mm.
